# According to patent US20050143463A1, “Method of inhibiting angiogenesis” (THE QUEEN ELIZABETH HOSPITAL RESEARCH FOUNDATION INC., priority 2002, published 2005):
# System: chicken chorioallantoic membrane (CAM)
# Experiment: Chicken chorioallantoic membrane (CAM) assay for angiogenesis
# Assay type: in vivo
# Settings: for Vein length (%) / Artery length (%) / Total vessel length (%) / Vein Diameter (%): % of control, Mean ± SEM
# Procedure: Fertilised chicken eggs (HiChick Breeding Co, Kapunda, South Australia) were incubated for three days at 38° C. On Day 3 the embryos were cracked out of the egg and into a cup made of plastic piping, with plastic film stretched over the top to form a hammock for the egg to be suspended in. Two ml of DMEM containing penicillin and streptomycin was added to each cup prior to the egg being added. A petri dish on the top maintained sterility. Incubation continued in a humidified 37° C. incubator.
# On Day 4 the chorioallantoic membrane (CAM) begins to grow, and pictures were taken of each embryo at ×5 to measure the CAM area using image analysis software (Video Pro 32, Leading Edge Pty Ltd, South Australia).
# Embryos were then grouped according to their CAM area, with a control embryo in each for comparison. Grouping is critical as in these early developmental stages changes in the CAM growth are dramatic. Relatively small differences in size on Day 4 translate to large differences in the CAM on Day 5. Treatment was applied in methylcellulose discs, which were dried under vacuum overnight. The methylcellulose discs were applied to the top of the CAM, and at the beginning of treatment were at least three to four-fold bigger than the CAM area, meaning treatment covered the entire CAM surface.
# On Day 5 skim milk with contrast medium was injected into the CAM. Pictures were then taken at various levels of magnification up to ×63. Quantitative measurements were made from ×5 pictures. CAM area, and vein and artery lengths were measured using image analysis (Video Pro 32, Leading Edge Pty Ltd, South Australia). Relative vessel lengths were then calculated as the total length/CAM area. Statistical analysis was made using SigmaStat and OneWay ANOVA with p<0.05 as the level of significance.
structure (smiles),measurement,setting,value
"CCC(C)CCCCCCCCCCC(=O)O (centres unmarked) [12-MTA, 12-methyltetradecanoic acid]",Vein length (%),25 nmol on methylcellulose disc,82.1 ± 22.9%
same,Artery length (%),25 nmol,81.8 ± 11.6%
same,Total vessel length (%),25 nmol,79.8 ± 15.0%
same,Vein Diameter (%),25 nmol,89.3 ± 25.2%
same,Vein length (%),50 nmol on methylcellulose disc,74.4 ± 20.8%
same,Artery length (%),50 nmol,78.8 ± 12.2%
same,Total vessel length (%),50 nmol,74.9 ± 14.7%
same,Vein Diameter (%),50 nmol,59.1 ± 11.2%
same,Vein length (%),100 nmol on methylcellulose disc,46.0 ± 8.7^1%
same,Artery length (%),100 nmol,63.8 ± 4.0^1%
same,Total vessel length (%),100 nmol,54.9 ± 4.3^1%
same,Vein Diameter (%),100 nmol,45.9 ± 10.0^1%
same,number of branching capillaries sprouting from the main vessels,500 nmol,reduction
same,vessel area,500 nmol,diminished
same,cytotoxicity to the embryo,"chicken embryo, CAM assay",not cytotoxic
same,"inhibition of angiogenesis in the CAM assay, dose dependent (in words)",dose dependent manner,inhibit angiogenesis
same,"effect of the lowest dose on vein length, artery length, total vessel length and vein diameter (in words)",lowest dose (25 nmol),inhibited
